Results on five compounds are retold here after PMC9673917 (ACS Infectious Diseases, 2022).

The subject of data set [1] is Calu-3 and HEK293-ACE2 cells. Particulars: Calu-3 and HEK293-ACE2 cell lines.
In data set [2] the test system is ACE2/RBD interaction. The note with it: up to 100 μM; cell-free ELISA-type assays; RBD residues 319–541; ref 14 (Bojadzic et al.); cited from earlier work.
In data set [3] the test system is ACE2/RBD interaction. The note with it: 150 μM; RBD residues 319–541; ref 11 (Ao et al.); cited from earlier work.
For another data set, the system named is spike protein. Particulars: Calu-3 cell line; cited from earlier work.
The subject of another data set is ACE2/RBD. Particulars: read-out: IC50 as ACE2/RBD binding inhibitor, AlphaLISA; ref 16 (Hanson et al.); cited from earlier work. (In general: Bead proximity is the source of the signal in Alpha formats.)
Another data set deals with RBD-Fc/ACE2-Strep (Severe acute respiratory syndrome coronavirus 2, UniProt P0DTC2). As to the kind of experiment: biochemical. It counts as binding, SARS-CoV-2 S protein; human ACE2.

For the compound `Cc1ccc(C(=O)Nc2ccc(S(=O)(=O)O)c3cc(S(=O)(=O)O)cc(S(=O)(=O)O)c23)cc1NC(=O)c1cccc(NC(=O)Nc2cccc(C(=O)Nc3cc(C(=O)Nc4ccc(S(=O)(=O)O)c5cc(S(=O)(=O)O)cc(S(=O)(=O)O)c45)ccc3C)c2)c1` [suramin], the “cytotoxicity over active concentration ranges” value in data set [1] is on record as “low to moderate cytotoxicity”. The “inhibition of the ACE2/RBD interaction” value with ACE2/RBD interaction [2] is listed as “did not inhibit”. In addition, the “inhibition of ACE2/RBD interaction” value in the data set on ACE2/RBD interaction [3] was “around 50%”.
For “REGN10933: monoclonal antibody that targets the spike protein”, the neutralization efficacy entry in the data set with spike protein was “potent neutralization efficacy”.
As for “REGN10987: monoclonal antibody that targets the spike protein”, the neutralization efficacy entry in the data set on spike protein is recorded as “potent neutralization efficacy”.
For the compound `O=C(O[C@@H]1O[C@@H]2COC(=O)c3cc(O)c(O)c(O)c3-c3c(cc(O)c(O)c3O)C(=O)O[C@H]([C@H]1O)[C@@H]2O)c1cc(O)c(O)c(O)c1` [corilagin], the IC50 in the data set with ACE2/RBD is 5.5 µM.
Take `CCCCCCCC/C=C\CCCCCCCC(=O)O` [oleic acid]: the “cytotoxicity over active concentration ranges” value in data set [1] is given as “low to moderate cytotoxicity”. Also, the IC50 at RBD-Fc/ACE2-Strep amounted to 35.3 µM.
